Reference: US6274715A, “Tricyclic erythromycin derivatives” (priority 1997, dated 2001)
≈ marks a conversion by molar mass, not a printed value.

Key:
Type in all cases: cell-based
PSEUDOMONAS CEPACIA 296I = assay: In vitro antibacterial activity, MIC, BHI agar dilution; settings: P. cepacia 296I, unit assumed
[1] = system: STREPTOCOCCUS PYOGENES EES61; assay: as above; settings: S. pyogenes EES61, unit assumed
[2] = system: PSEUDOMONAS AERUGINOSA 5007; assay: as above; settings: P. aeruginosa 5007, unit assumed
CANDIDA ALBICANS CCH 442 = assay: as above; settings: C. albicans CCH 442, unit assumed
[3] = system: MYCOBACTERIUM SMEGMATIS ATCC 114; assay: as above; settings: M. smegmatis ATCC 114, unit assumed
[4] = system: STREPTOCOCCUS BOVIS A-5169; assay: as above; settings: S. bovis A-5169, unit assumed
[5] = system: STAPHYLOCOCCUS AUREUS 1775; assay: as above; settings: S. aureus 1775, unit assumed
[6] = system: STREPTOCOCCUS PYOGENES PIU 2548; assay: as above; settings: S. pyogenes PIU 2548, unit assumed
[7] = system: ENTEROBACTER AEROGENES ATCC 13048; assay: as above; settings: E. aerogenes ATCC 13048, unit assumed
ESCHERICHIA COLI H560 = assay: as above; settings: E. coli H560, unit assumed
[8] = system: STAPHYLOCOCCUS EPIDERMIDIS 3519; settings: S. epidermidis 3519; BHI agar; unit assumed
[9] = system: STAPHYLOCOCCUS AUREUS A5177; assay: In vitro antibacterial activity, MIC, BHI agar dilution; settings: S. aureus A5177, unit assumed
[10] = system: PSEUDOMONAS AERUGINOSA BMH10; assay: as above; settings: P. aeruginosa BMH10, unit assumed
[11] = system: STAPHYLOCOCCUS AUREUS ATCC 6538P; assay: as above; settings: S. aureus ATCC 6538P, 35-37° C., 20 to 24 hours, unit assumed
ESCHERICHIA COLI DC-2 = assay: as above; settings: E. coli DC-2, unit assumed
[12] = system: STAPHYLOCOCCUS AUREUS CMX 642A; assay: as above; settings: S. aureus CMX 642A, unit assumed
[13] = system: STAPHYLOCOCCUS AUREUS CMX 553; assay: as above; settings: S. aureus CMX 553, unit assumed
ESCHERICHIA COLI SS = assay: as above; settings: E. coli SS, unit assumed
[14] = system: PSEUDOMONAS AERUGINOSA DPHD-5263; assay: as above; settings: P. aeruginosa DPHD-5263, unit assumed
[15] = system: STREPTOCOCCUS PYOGENES 930; assay: as above; settings: S. pyogenes 930, unit assumed
[16] = system: KLEBSIELLA PNEUMONIAE ATCC 8045; assay: as above; settings: K. pneumoniae ATCC 8045, unit assumed
M[…] ATCC 9341 = assay: as above; settings: M. luteus ATCC 9341, unit assumed
In short: (§1)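 BHI agar dilution, 12 plates; inoculum 1:100 (1:10 slow-growing strains), Steers replicator; 35-37° C, 20-24 h. MIC = lowest conc. with no growth/slight haze/sparse colonies vs growth control, visual read. Erythromycin A reference plate.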

M[…] ATCC 4698 = assay: as above; settings: M. luteus ATCC 4698, unit assumed
In short: as §1

EN[…] ATCC 8043 = assay: as above; settings: E. faecium ATCC 8043, unit assumed
In short: as §1

STR[…] 508 = assay: as above; settings: S. agalactiae CMX 508, unit assumed
In short: as §1

[17] = system: PSEUDOMONAS AERUGINOSA K799/WT; assay: as above; settings: P. aeruginosa K799/WT, unit assumed
[18] = system: PSEUDOMONAS AERUGINOSA K799/61; assay: as above; settings: P. aeruginosa K799/61, unit assumed
ESCHERICHIA COLI KNK 437 = settings: E. coli KNK 437; BHI agar; unit assumed
[19] = system: STAPHYLOCOCCUS AUREUS A-5278; assay: In vitro antibacterial activity, MIC, BHI agar dilution; settings: S. aureus A-5278, unit assumed
ESCHERICHIA COLI JUHL = settings: E. coli JUHL; BHI agar; unit assumed
[20] = system: STAPHYLOCOCCUS AUREUS NCTC10649M; assay: In vitro antibacterial activity, MIC, BHI agar dilution; settings: S. aureus NCTC10649M, unit assumed
[21] = system: PROVIDENCIA STUARTII CMX 640; settings: P. stuartii CMX 640; BHI agar; unit assumed
[22] = system: PSEUDOMONAS AERUGINOSA DPHD-2862; assay: In vitro antibacterial activity, MIC, BHI agar dilution; settings: P. aeruginosa DPHD-2862, unit assumed

## CC[C@H]1OC(=O)[C@H](C)C(=O)[C@H](C)[C@@H](O[C@@H]2O[C@H](C)C[C@H](N(C)C)[C@H]2O)[C@](C)(OC)C[C@@H](C)C2=NC[C@H](Cc3cscn3)N3C(=O)O[C@@]1(C)[C@H]3[C@H]2C [Example 69]
PSEUDOMONAS CEPACIA 296I
  MIC: > 100 µg/mL
[1]
  MIC: 0.02 µg/mL (≈ 0.0272 µM)
[2]
  MIC: > 100 µg/mL
CANDIDA ALBICANS CCH 442
  MIC: > 100 µg/mL
[3]
  MIC: 3.1 µg/mL (≈ 4.22 µM)
[4]
  MIC: 0.01 µg/mL (≈ 0.0136 µM)
[5]
  MIC: > 100 µg/mL
[6]
  MIC: 0.39 µg/mL (≈ 0.531 µM)
[7]
  MIC: > 100 µg/mL
ESCHERICHIA COLI H560
  MIC: 50 µg/mL (≈ 68 µM)
[8]
  MIC: 0.2 µg/mL (≈ 0.272 µM)
[9]
  MIC: 0.2 µg/mL (≈ 0.272 µM)
[10]
  MIC: > 100 µg/mL
[11]
  MIC: 0.2 µg/mL (≈ 0.272 µM)
ESCHERICHIA COLI DC-2
  MIC: 50 µg/mL (≈ 68 µM)
[12]
  MIC: 0.39 µg/mL (≈ 0.531 µM)
[13]
  MIC: 0.2 µg/mL (≈ 0.272 µM)
ESCHERICHIA COLI SS
  MIC: 0.39 µg/mL (≈ 0.531 µM)
[14]
  MIC: > 100 µg/mL
[15]
  MIC: > 100 µg/mL
[16]
  MIC: > 100 µg/mL
M[…] ATCC 9341
  MIC: 0.05 µg/mL (≈ 0.068 µM)
M[…] ATCC 4698
  MIC: 0.2 µg/mL (≈ 0.272 µM)
EN[…] ATCC 8043
  MIC: 0.1 µg/mL (≈ 0.136 µM)
STR[…] 508
  MIC: 0.02 µg/mL (≈ 0.0272 µM)
[17]
  MIC: > 100 µg/mL
[18]
  MIC: 0.78 µg/mL (≈ 1.06 µM)
ESCHERICHIA COLI KNK 437
  MIC: > 100 µg/mL
[19]
  MIC: > 100 µg/mL
ESCHERICHIA COLI JUHL
  MIC: 100 µg/mL (≈ 136 µM)
[20]
  MIC: 0.2 µg/mL (≈ 0.272 µM)
[21]
  MIC: > 100 µg/mL
[22]
  MIC: > 100 µg/mL

## CC[C@H]1OC(=O)[C@H](C)C(=O)[C@H](C)[C@@H](O[C@@H]2O[C@H](C)C[C@H](N(C)C)[C@H]2O)[C@](C)(OC)C[C@@H](C)C2=NC[C@H](Cc3ccc(I)cc3)N3C(=O)O[C@@]1(C)[C@H]3[C@H]2C [Example 70]
PSEUDOMONAS CEPACIA 296I
  MIC: 50 µg/mL (≈ 58.6 µM)
[1]
  MIC: 0.02 µg/mL (≈ 0.0234 µM)
[2]
  MIC: 100 µg/mL (≈ 117 µM)
CANDIDA ALBICANS CCH 442
  MIC: 100 µg/mL (≈ 117 µM)
[3]
  MIC: 0.2 µg/mL (≈ 0.234 µM)
[4]
  MIC: 0.01 µg/mL (≈ 0.0117 µM)
[5]
  MIC: 100 µg/mL (≈ 117 µM)
[6]
  MIC: 0.39 µg/mL (≈ 0.457 µM)
[7]
  MIC: 100 µg/mL (≈ 117 µM)
ESCHERICHIA COLI H560
  MIC: 50 µg/mL (≈ 58.6 µM)
[8]
  MIC: 0.2 µg/mL (≈ 0.234 µM)
[9]
  MIC: 0.1 µg/mL (≈ 0.117 µM)
[10]
  MIC: 100 µg/mL (≈ 117 µM)
[11]
  MIC: 0.1 µg/mL (≈ 0.117 µM)
ESCHERICHIA COLI DC-2
  MIC: 50 µg/mL (≈ 58.6 µM)
[12]
  MIC: 0.2 µg/mL (≈ 0.234 µM)
[13]
  MIC: 0.2 µg/mL (≈ 0.234 µM)
ESCHERICHIA COLI SS
  MIC: 1.56 µg/mL (≈ 1.83 µM)
[14]
  MIC: 100 µg/mL (≈ 117 µM)
[15]
  MIC: 50 µg/mL (≈ 58.6 µM)
[16]
  MIC: 100 µg/mL (≈ 117 µM)
M[…] ATCC 9341
  MIC: 0.1 µg/mL (≈ 0.117 µM)
M[…] ATCC 4698
  MIC: 0.2 µg/mL (≈ 0.234 µM)
EN[…] ATCC 8043
  MIC: 0.1 µg/mL (≈ 0.117 µM)
STR[…] 508
  MIC: 0.05 µg/mL (≈ 0.0586 µM)
[17]
  MIC: > 100 µg/mL
[18]
  MIC: 0.78 µg/mL (≈ 0.914 µM)
ESCHERICHIA COLI KNK 437
  MIC: > 100 µg/mL
[19]
  MIC: 100 µg/mL (≈ 117 µM)
ESCHERICHIA COLI JUHL
  MIC: 100 µg/mL (≈ 117 µM)
[20]
  MIC: 0.2 µg/mL (≈ 0.234 µM)
[21]
  MIC: > 100 µg/mL
[22]
  MIC: 100 µg/mL (≈ 117 µM)

## CCC1OC(=O)C(C)C(=O)C(C)C(OC2OC(C)CC(N(C)C)C2O)C(C)(OC)CC(C)C2=NCC(COCc3ccccc3F)N3C(=O)OC1(C)C3C2C (stereo not drawn) [Example 73]
PSEUDOMONAS CEPACIA 296I
  MIC: 25 µg/mL (≈ 32.2 µM)
[1]
  MIC: ≤ 0.005 µg/mL
[2]
  MIC: > 100 µg/mL
CANDIDA ALBICANS CCH 442
  MIC: > 100 µg/mL
[3]
  MIC: 0.39 µg/mL (≈ 0.503 µM)
[4]
  MIC: 0.01 µg/mL (≈ 0.0129 µM)
[5]
  MIC: > 100 µg/mL
[6]
  MIC: 0.39 µg/mL (≈ 0.503 µM)
[7]
  MIC: 100 µg/mL (≈ 129 µM)
ESCHERICHIA COLI H560
  MIC: 12.5 µg/mL (≈ 16.1 µM)
[8]
  MIC: 0.1 µg/mL (≈ 0.129 µM)
[9]
  MIC: 0.1 µg/mL (≈ 0.129 µM)
[10]
  MIC: 100 µg/mL (≈ 129 µM)
[11]
  MIC: 0.1 µg/mL (≈ 0.129 µM)
ESCHERICHIA COLI DC-2
  MIC: 25 µg/mL (≈ 32.2 µM)
[12]
  MIC: 0.1 µg/mL (≈ 0.129 µM)
[13]
  MIC: 0.1 µg/mL (≈ 0.129 µM)
ESCHERICHIA COLI SS
  MIC: 0.2 µg/mL (≈ 0.258 µM)
[14]
  MIC: 100 µg/mL (≈ 129 µM)
[15]
  MIC: 100 µg/mL (≈ 129 µM)
[16]
  MIC: 100 µg/mL (≈ 129 µM)
M[…] ATCC 9341
  MIC: 0.01 µg/mL (≈ 0.0129 µM)
M[…] ATCC 4698
  MIC: 0.1 µg/mL (≈ 0.129 µM)
EN[…] ATCC 8043
  MIC: 0.05 µg/mL (≈ 0.0644 µM)
STR[…] 508
  MIC: ≤ 0.005 µg/mL
[17]
  MIC: > 100 µg/mL
[18]
  MIC: 0.39 µg/mL (≈ 0.503 µM)
ESCHERICHIA COLI KNK 437
  MIC: 50 µg/mL (≈ 64.4 µM)
[19]
  MIC: > 100 µg/mL
ESCHERICHIA COLI JUHL
  MIC: 50 µg/mL (≈ 64.4 µM)
[20]
  MIC: 0.1 µg/mL (≈ 0.129 µM)
[21]
  MIC: > 100 µg/mL
[22]
  MIC: 100 µg/mL (≈ 129 µM)
